In US8987247B2, “Monoacylglycerol lipase inhibitors for the treatment of metabolic diseases and related disorders” (Janssen Pharmaceutica NV, priority 2011, dated 2015):
Marks after values point to notes of the source that are not given here.

Assays:
Sprague-Dawley rats = test: Effect on Food Intake after Food Deprivation in Rats; type: in vivo, rat; conditions: 30 mg/kg p.o., rats fasted 18 h, N=6/group
Protocol: In rats, food deprivation or restriction is a standard method for inducing increased food intake. In other words, depriving the rats of food and then subsequently presenting them with food results, predictably in over-eating (also referred to as rebound hyperphagia). To study the effect of compounds of formula (I) on feeding behavior, rats were treated after food deprivation.
Adult, male Sprague-Dawley rats were single-housed on a 12 h light/dark cycle and received food and water ad libitum, except where otherwise indicated. Rats were allowed to acclimate to the housing room for at least 1 week prior to testing. One day prior to treatment, each rat was transferred to a new cage that was free of bedding and contained a wire grid floor, and all food was removed. Rats were fasted for 18 h before treatment. Rats were divided into two groups (N=6/group) and received either a compound of formula (I) at 30 mg/kg, p.o. or vehicle. At dosing, all rats received a pre-measured amount of standard rodent chow. After 30 min, the food was re-weighed to determine the amount consumed.

rats, strain CD(SD)IGS = test: 5-Day Repeat Dose with Weight Monitoring in Rats; type: in vivo, rat; conditions: for Mean body weight Change: Day −1 to Day 4
Protocol: Male and Female rats, strain CD(SD)IGS (Charles River Laboratories International, Inc., MA) of 8 weeks of age were individually housed and maintained on a 12-hr light/dark cycle. Rats were fed ad libitum with a standard diet (Rodent Diet 5001, PMI Nutrition International, Indiana). […] Rats were weighed predose and on days 1 and 4. Clinical observations were recorded prior to dosing, at 2 hours post-dose each day. Rats were fasted overnight on Day 4 and blood was collected on Day 5 from the retro-orbital sinus following anesthesia with a 70/30% carbon dioxide/oxygen mixture. Blood was collected into tubes containing tripotassium EDTA for hematology panel and no additive for serum chemistry determinations. Rats were euthanized by CO2 inhalation and thoracic and abdominal cavities were examined and weights of liver determined.

beagle dogs = test: 5-Day Repeat Dose with Weight Monitoring in Dogs; type: in vivo, dog; parameters: key to Clinical Observations: Stained urogenital area (no. of dogs) / Body Temperature Change / Body Weight Change: —: No noteworthy findings; conditions: for Body Weight Change: 5 days, Day-1 to Day 5; for Body Temperature Change: 4 hours postdose on Day 0
Protocol: Male and female beagle dogs, 15 months of age, were individually housed and maintained on a 12-hourlight/dark cycle. Dogs were given 300 g/day of Advanced Protocol™ Non-Certified High Density Canine Diet 5L18 (pMfID Nutrition International). Food was provided 0.5 to 2 hours post-dose, except on days of toxicokinetic blood sampling when food was provided after the 4 hour time point. Canned food was supplemented beginning on day 3. A compound of formula (I) was administered orally via gavage using a stomach tube once daily (initiating on Day 0) to male and female dogs (1 each per dose) for 5 consecutive days at 0, 5, 15 and 45 mg/kg/day. Dogs were weighed on Day-1 and Day 5 prior to necropsy. Food consumption was determined 3 days predose and then daily. Body temperature was measured at 0 (predose), 4 and 24 hours on Days 0 and 4. Clinical observations were recorded predose and 2 hours postdose daily. Dogs were fasted overnight prior to blood collection. Blood was collected from all dogs predose on Day-8 and prior to dosing on Day 4 from the jugular vein. Blood was collected into tubes containing tripotassium EDTA for hematology and no additive for serum chemistry determinations. At necropsy, the thoracic and abdominal cavities were examined.

O=C(c1ccc2c(ccn2-c2ccc(F)cc2)c1)N1CC(N2CCN(C(=O)c3nccs3)CC2)C1 [Cpd 1, 1-(4-Fluorophenyl)-5-({3-[4-(1,3-thiazol-2-ylcarbonyl)piperazin-1-yl]azetidin-1-yl}carbonyl)-1H-indole]
Food Intake (g of food over 30 min) (Sprague-Dawley rats): 1.60 ± 1.02 g | Mean body weight (rats, strain CD(SD)IGS; female rats, 15 mg/kg/day oral, Day 4): 226.98 +/− 10.29 | Mean body weight (rats, strain CD(SD)IGS; female rats, 15 mg/kg/day oral, Day −1 (predose)): 203.86 +/− 6.13 | Mean body weight (rats, strain CD(SD)IGS; female rats, 50 mg/kg/day oral, Day −1 (predose)): 199.16 +/− 5.66 | Mean body weight Change (rats, strain CD(SD)IGS; female rats, 50 mg/kg/day oral): 8.54 +/− 2.32 | Mean body weight (rats, strain CD(SD)IGS; male rats, 15 mg/kg/day oral, Day 4): 301.94 +/− 7.52 | Mean body weight (rats, strain CD(SD)IGS; male rats, 15 mg/kg/day oral, Day −1 (predose)): 273.34 +/− 4.80 | Mean body weight Change (rats, strain CD(SD)IGS; male rats, 15 mg/kg/day oral): 28.60 +/− 2.90 | Mean body weight (rats, strain CD(SD)IGS; male rats, 50 mg/kg/day oral, Day 4): 278.78 +/− 6.95 | Mean body weight (rats, strain CD(SD)IGS; male rats, 50 mg/kg/day oral, Day −1 (predose)): 272.66 +/− 6.92 | Mean body weight Change (rats, strain CD(SD)IGS; male rats, 50 mg/kg/day oral): 6.10 +/− 3.56* | Clinical Observations: Emesis (no. of dogs) (beagle dogs; dog F:1, 5 mg/kg daily oral): 1 | Clinical Observations: Feces, absent (no. of dogs) (beagle dogs; dog F:1, 5 mg/kg daily oral): 1 | Clinical Observations: Feces, decrease (no. of dogs) (beagle dogs; dog F:1, 5 mg/kg daily oral): 1 | Clinical Observations: Stained urogenital area (no. of dogs) (beagle dogs; dog F:1, 5 mg/kg daily oral): — | Food Consumption (beagle dogs; dog F:1, 5 mg/kg daily oral): ↓ | Body Weight Change (beagle dogs; dog F:1, 5 mg/kg daily oral): −0.90 | Body Temperature Change (beagle dogs; dog F:1, 5 mg/kg daily oral): −3.2 | Clinical Observations: Emesis (no. of dogs) (beagle dogs; dog F:1, 15 mg/kg daily oral): 1 | Clinical Observations: Feces, absent (no. of dogs) (beagle dogs; dog F:1, 15 mg/kg daily oral): 1 | Clinical Observations: Feces, decrease (no. of dogs) (beagle dogs; dog F:1, 15 mg/kg daily oral): 1 | Clinical Observations: Stained urogenital area (no. of dogs) (beagle dogs; dog F:1, 15 mg/kg daily oral): 1 | Food Consumption (beagle dogs; dog F:1, 15 mg/kg daily oral): ↓ | Body Weight Change (beagle dogs; dog F:1, 15 mg/kg daily oral): — | Body Temperature Change (beagle dogs; dog F:1, 15 mg/kg daily oral): −1.6 | Clinical Observations: Emesis (no. of dogs) (beagle dogs; dog F:1, 45 mg/kg daily oral): 1 | Clinical Observations: Feces, absent (no. of dogs) (beagle dogs; dog F:1, 45 mg/kg daily oral): 1 | Clinical Observations: Feces, decrease (no. of dogs) (beagle dogs; dog F:1, 45 mg/kg daily oral): 1 | Clinical Observations: Stained urogenital area (no. of dogs) (beagle dogs; dog F:1, 45 mg/kg daily oral): 1 | Food Consumption (beagle dogs; dog F:1, 45 mg/kg daily oral): ↓ | Body Weight Change (beagle dogs; dog F:1, 45 mg/kg daily oral): −1.28 | Body Temperature Change (beagle dogs; dog F:1, 45 mg/kg daily oral): — | Clinical Observations: Emesis (no. of dogs) (beagle dogs; dog M:1, 5 mg/kg daily oral): 1 | Clinical Observations: Feces, absent (no. of dogs) (beagle dogs; dog M:1, 5 mg/kg daily oral): 1 | Clinical Observations: Feces, decrease (no. of dogs) (beagle dogs; dog M:1, 5 mg/kg daily oral): 1 | Clinical Observations: Stained urogenital area (no. of dogs) (beagle dogs; dog M:1, 5 mg/kg daily oral): — | Food Consumption (beagle dogs; dog M:1, 5 mg/kg daily oral): ↓ | Body Weight Change (beagle dogs; dog M:1, 5 mg/kg daily oral): −1.10 | Body Temperature Change (beagle dogs; dog M:1, 5 mg/kg daily oral): −3.4 | Clinical Observations: Emesis (no. of dogs) (beagle dogs; dog M:1, 15 mg/kg daily oral): 1 | Clinical Observations: Feces, absent (no. of dogs) (beagle dogs; dog M:1, 15 mg/kg daily oral): 1 | Clinical Observations: Feces, decrease (no. of dogs) (beagle dogs; dog M:1, 15 mg/kg daily oral): 1 | Clinical Observations: Stained urogenital area (no. of dogs) (beagle dogs; dog M:1, 15 mg/kg daily oral): 1 | Food Consumption (beagle dogs; dog M:1, 15 mg/kg daily oral): ↓ | Body Weight Change (beagle dogs; dog M:1, 15 mg/kg daily oral): −0.74 | Body Temperature Change (beagle dogs; dog M:1, 15 mg/kg daily oral): — | Clinical Observations: Emesis (no. of dogs) (beagle dogs; dog M:1, 45 mg/kg daily oral): 1 | Clinical Observations: Feces, absent (no. of dogs) (beagle dogs; dog M:1, 45 mg/kg daily oral): 1 | Clinical Observations: Feces, decrease (no. of dogs) (beagle dogs; dog M:1, 45 mg/kg daily oral): 1 | Clinical Observations: Stained urogenital area (no. of dogs) (beagle dogs; dog M:1, 45 mg/kg daily oral): 1 | Food Consumption (beagle dogs; dog M:1, 45 mg/kg daily oral): ↓ | Body Weight Change (beagle dogs; dog M:1, 45 mg/kg daily oral): −0.78 | Body Temperature Change (beagle dogs; dog M:1, 45 mg/kg daily oral): −1.9
